ChEMBL document CHEMBL1125967, “Total synthesis of L-2,2-difluoro-2-deoxy-MYO-inositol 1,4,5-trisphosphate, a potent inhibitor of the enzymes of d-MYO-inositol 1,4,5-trisphosphate metabolism” (Bioorg Med Chem Lett, 1991)
pEC50, pKi: −log10 of the molar value.

Assays:
[1] = target: Inositol 1,4,5-trisphosphate receptor (Homo sapiens, UniProt Q14571+Q14573+Q14643); experiment: Compound was evaluated for its effective dose to inhibit the calcium release as a measure of affinity for Inositol 1,4,5-trisphosphate receptor; type: functional
[2] = Inhibition of inositol-trisphosphate phosphorylation; parameters: species or system Rattus norvegicus
[3] = target: T1, Inositol polyphosphate-5-phosphatase A (Homo sapiens, UniProt Q14642); experiment: Compound was evaluated for binding affinity towards Inositol-1,4,5-trisphosphate 5-phosphatase
T1 sequence (Q14642 whole entry): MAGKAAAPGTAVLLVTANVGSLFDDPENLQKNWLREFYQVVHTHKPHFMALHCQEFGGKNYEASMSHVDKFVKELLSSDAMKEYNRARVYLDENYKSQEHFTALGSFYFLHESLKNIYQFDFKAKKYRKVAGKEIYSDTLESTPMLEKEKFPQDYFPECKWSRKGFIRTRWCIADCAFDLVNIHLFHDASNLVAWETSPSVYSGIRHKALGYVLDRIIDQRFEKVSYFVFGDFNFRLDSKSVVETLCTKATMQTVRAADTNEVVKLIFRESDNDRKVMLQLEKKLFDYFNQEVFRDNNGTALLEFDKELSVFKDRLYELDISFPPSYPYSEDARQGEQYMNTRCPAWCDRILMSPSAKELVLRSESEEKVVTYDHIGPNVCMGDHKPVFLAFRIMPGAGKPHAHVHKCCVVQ

[4] = target: Inositol 1,4,5-trisphosphate-gated calcium channel ITPR3 (Homo sapiens, UniProt Q14573); experiment: Compound was evaluated for its effective dose to inhibit the calcium release as a measure of affinity for Ins(1,4,5)P3 receptor; type: functional
Sequence of Inositol 1,4,5-trisphosphate-gated calcium channel ITPR3 (Q14573 whole entry): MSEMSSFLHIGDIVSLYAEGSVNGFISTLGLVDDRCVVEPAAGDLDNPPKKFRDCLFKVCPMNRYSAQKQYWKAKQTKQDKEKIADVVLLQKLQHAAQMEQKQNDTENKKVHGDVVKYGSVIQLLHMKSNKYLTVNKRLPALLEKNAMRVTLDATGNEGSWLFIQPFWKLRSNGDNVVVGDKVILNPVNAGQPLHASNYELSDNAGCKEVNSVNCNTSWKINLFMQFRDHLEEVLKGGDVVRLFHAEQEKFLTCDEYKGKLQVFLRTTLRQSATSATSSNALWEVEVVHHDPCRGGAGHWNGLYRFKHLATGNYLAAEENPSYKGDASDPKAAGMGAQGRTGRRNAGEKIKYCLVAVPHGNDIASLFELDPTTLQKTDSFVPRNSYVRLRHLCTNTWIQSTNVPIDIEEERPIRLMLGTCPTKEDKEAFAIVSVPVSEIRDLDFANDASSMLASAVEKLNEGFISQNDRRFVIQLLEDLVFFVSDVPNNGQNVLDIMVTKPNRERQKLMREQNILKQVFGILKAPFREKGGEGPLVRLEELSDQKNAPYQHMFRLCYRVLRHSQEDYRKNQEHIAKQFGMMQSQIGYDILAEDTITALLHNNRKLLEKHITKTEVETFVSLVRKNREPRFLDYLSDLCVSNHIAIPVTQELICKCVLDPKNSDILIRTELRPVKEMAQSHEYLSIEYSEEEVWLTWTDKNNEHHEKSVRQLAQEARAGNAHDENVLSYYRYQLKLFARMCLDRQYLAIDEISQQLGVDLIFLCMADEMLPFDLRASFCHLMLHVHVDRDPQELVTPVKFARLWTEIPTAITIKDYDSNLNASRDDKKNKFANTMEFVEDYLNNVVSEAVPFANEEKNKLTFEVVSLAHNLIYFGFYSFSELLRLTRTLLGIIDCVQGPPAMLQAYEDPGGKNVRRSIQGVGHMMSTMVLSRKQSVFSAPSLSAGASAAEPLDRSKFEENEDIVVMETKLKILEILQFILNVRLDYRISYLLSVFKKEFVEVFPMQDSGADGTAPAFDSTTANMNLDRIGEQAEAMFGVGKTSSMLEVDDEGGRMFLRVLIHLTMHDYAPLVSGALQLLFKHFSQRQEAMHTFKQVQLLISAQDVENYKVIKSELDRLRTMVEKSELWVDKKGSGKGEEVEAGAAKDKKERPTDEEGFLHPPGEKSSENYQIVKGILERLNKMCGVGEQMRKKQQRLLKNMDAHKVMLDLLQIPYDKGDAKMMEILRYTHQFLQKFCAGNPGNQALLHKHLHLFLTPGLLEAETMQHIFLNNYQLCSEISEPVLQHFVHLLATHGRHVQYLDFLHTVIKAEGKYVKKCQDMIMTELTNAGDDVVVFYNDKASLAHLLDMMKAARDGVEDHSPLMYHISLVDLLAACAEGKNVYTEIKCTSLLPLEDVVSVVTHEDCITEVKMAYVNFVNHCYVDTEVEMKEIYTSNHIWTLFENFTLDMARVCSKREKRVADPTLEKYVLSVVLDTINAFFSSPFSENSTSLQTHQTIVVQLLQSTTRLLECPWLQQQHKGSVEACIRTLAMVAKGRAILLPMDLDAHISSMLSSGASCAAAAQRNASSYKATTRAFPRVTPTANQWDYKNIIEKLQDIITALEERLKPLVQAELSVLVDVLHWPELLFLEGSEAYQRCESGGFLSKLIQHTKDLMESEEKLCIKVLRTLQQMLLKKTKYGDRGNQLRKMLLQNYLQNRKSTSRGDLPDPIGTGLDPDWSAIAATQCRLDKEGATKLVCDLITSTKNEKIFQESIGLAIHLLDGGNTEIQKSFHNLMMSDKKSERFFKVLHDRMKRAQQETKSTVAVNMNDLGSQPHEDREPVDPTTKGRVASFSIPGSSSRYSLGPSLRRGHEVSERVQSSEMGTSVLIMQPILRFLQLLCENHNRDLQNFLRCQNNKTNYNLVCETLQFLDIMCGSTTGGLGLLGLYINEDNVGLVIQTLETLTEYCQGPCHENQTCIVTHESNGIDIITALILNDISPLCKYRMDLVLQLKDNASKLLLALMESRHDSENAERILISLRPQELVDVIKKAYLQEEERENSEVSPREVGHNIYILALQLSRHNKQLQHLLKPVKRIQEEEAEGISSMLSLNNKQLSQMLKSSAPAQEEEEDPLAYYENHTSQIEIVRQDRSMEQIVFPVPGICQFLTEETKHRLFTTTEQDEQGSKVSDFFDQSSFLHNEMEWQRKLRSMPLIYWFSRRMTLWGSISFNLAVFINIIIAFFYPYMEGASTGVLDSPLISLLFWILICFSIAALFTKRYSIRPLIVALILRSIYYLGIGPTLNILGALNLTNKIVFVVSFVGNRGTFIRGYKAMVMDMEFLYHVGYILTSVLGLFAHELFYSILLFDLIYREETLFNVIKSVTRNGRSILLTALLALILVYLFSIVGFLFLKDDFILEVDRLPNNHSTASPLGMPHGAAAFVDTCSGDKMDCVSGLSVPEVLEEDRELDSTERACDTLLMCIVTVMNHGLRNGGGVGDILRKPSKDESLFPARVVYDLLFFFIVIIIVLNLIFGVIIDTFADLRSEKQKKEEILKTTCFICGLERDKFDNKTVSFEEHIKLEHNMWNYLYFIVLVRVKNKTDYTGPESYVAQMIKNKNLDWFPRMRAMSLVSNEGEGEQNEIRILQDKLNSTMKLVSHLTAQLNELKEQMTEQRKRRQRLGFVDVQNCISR

EC50 [1] [µM]	pKi [2]	pKi [3]	pEC50 [4]	Structure (SMILES)
0.41				O=P(O)(O)OC1C(O)C(OP(=O)(O)O)C(F)(F)C(O)C1OP(=O)(O)O (stereo in doubt)
53	4.94	4.59		O=P(O)(O)OC1C(O)C(OP(=O)(O)O)C(F)(F)C(O)C1OP(=O)(O)O (stereo in doubt; L-(4b))
			6.68	O=P(O)(O)OC1C(O)C(OP(=O)(O)O)C(F)(F)C(O)C1OP(=O)(O)O (stereo not given)
